Columns and labels:
cell growth = assay type: cell-based
mouse = conditions: in vivo, po; cited from earlier work

Molecule | IC50 (cell growth) | LD50 (mouse)
Arsenious acid | 10 µM | –
C[As+](C)(C)CC(=O)[O-] [AB, arsenobetaine] | – | 10,000 mg/kg
Arsenic acid | 100 µM | –
